From patent publication US20230031024A1, “SUBSTITUTED PYRIMIDINIUM COMPOUNDS FOR COMBATING ANIMAL PESTS” (BASF SE, priority 2018, published 2023)

How the values were obtained:
Type in all cases: in vivo
Bemisia argentifolii = assay: Silverleaf whitefly (Bemisia argentifolii) adults, sprayed cotton plant test; conditions: 72 h, 3 days after treatment, read-out: mortality in comparison with untreated controls
Source text: B.3 Silverleaf whitefly (Bemisia argentifolii) (adults)
The active compounds were formulated in cyclohexanone as a 10,000 ppm solution supplied in tubes. The tubes were inserted into an automated electrostatic sprayer equipped with an atomizing nozzle and they served as stock solutions for which lower dilutions were made in 50% acetone:50% water (v/v). A non-ionic surfactant (Kinetic®) was included in the solution at a volume of 0.01% (v/v).
Cotton plants at the cotyledon stage (one plant per pot) were sprayed by an automated electrostatic plant sprayer equipped with an atomizing spray nozzle. The plants were dried in the sprayer fume hood and then removed from the sprayer. Each pot was placed into a plastic cup and about 10 to 12 whitefly adults (approximately 3-5 days old) were introduced. The insects were collected using an aspirator and a nontoxic Tygon® tubing connected to a barrier pipette tip. The tip, containing the collected insects, was then gently inserted into the soil containing the treated plant, allowing insects to crawl out of the tip to reach the foliage for feeding. Cups were covered with a reusable screened lid. […] Mortality was assessed 3 days after treatment, compared to untreated control plants.

Spodoptera eridania = assay: Southern armyworm (Spodoptera eridania) 2nd instar larvae, sprayed lima bean plant test; conditions: 96 h, 4 days after treatment, read-out: mortality in comparison with untreated controls
Protocol: B.4. Southern armyworm (Spodoptera eridania), 2nd instar larvae
The active compounds were formulated in cyclohexanone as a 10,000 ppm solution supplied in tubes. The tubes were inserted into an automated electrostatic sprayer equipped with an atomizing nozzle and they served as stock solutions for which lower dilutions were made in 50% acetone:50% water (v/v). A nonionic surfactant (Kinetic®) was included in the solution at a volume of 0.01% (v/v).
Lima bean plants (variety Sieva) were grown 2 plants to a pot and selected for treatment at the 1st true leaf stage. Test solutions were sprayed onto the foliage by an automated electrostatic plant sprayer equipped with an atomizing spray nozzle. The plants were dried in the sprayer fume hood and then removed from the sprayer. Each pot was placed into perforated plastic bags with a zip closure. About 10 to 11 armyworm larvae were placed into the bag and the bags zipped closed. Test plants were maintained in a growth room at about 25° C. and about 20-40% relative humidity for 4 days, avoiding direct exposure to fluorescent light (24 hour photoperiod) to prevent trapping of heat inside the bags. Mortality and reduced feeding were assessed 4 days after treatment, compared to untreated control plants.

Anthonomus grandis = assay: Boll weevil (Anthonomus grandis) microtiter plate diet test, egg and larval mortality; conditions: 120 h, egg and larval mortality after 5 days, read-out: mortality in comparison with untreated controls
Protocol: B.1. Boll weevil (Anthonomus grandis)
For evaluating control of boll weevil (Anthonomus grandis) the test unit consisted of 96-wellmicrotiter plates containing an insect diet and 5-10 A. grandis eggs.
The compounds were formulated using a solution containing 75% v/v water and 25% v/v DMSO. Different concentrations of formulated compounds were sprayed onto the insect diet at 5 μl, using a custom-built micro atomizer, at two replications.
After application, microtiter plates were incubated at about 25+1° C. and about 75+5% relative humidity for 5 days. Egg and larval mortality was then visually assessed.

Plutella xylostella = assay: Diamond back moth (Plutella xylostella) cabbage leaf dip test, larval mortality; conditions: foliar, 3rd instar larvae, 72 hours after treatment, read-out: mortality in comparison with untreated controls
Protocol: B.2. Diamond back moth (Plutella xylostella)
The active compound is dissolved at the desired concentration in a mixture of 1:1 (vol:vol) distilled water: acetone. Surfactant (Alkamuls® EL 620) is added at a rate of 0.1% (vol/vol). The test solution is prepared at the day of use.
Leaves of cabbage were dipped in test solution and air-dried. Treated leaves were placed in petri dish enlined with moist filter paper and inoculated with ten 3rd instar larvae. Mortality was recorded 72 hours after treatment. Feeding damages were also recorded using a scale of 0-100%.

CO/N=C(\C)CC1CSc2n(C)c(=O)c(-c3ccccc3)c([O-])[n+]21 (stereo not shown) [C-1, 3-[(2E)-2-methoxyiminopropyl]-8-methyl-7-oxo-6-phenyl-2,3-dihydrothiazolo[3,2-a]pyrimidin-4-ium-5-olate]
> 75%: mortality at 500 ppm (Bemisia argentifolii) | mortality at 500 ppm (Spodoptera eridania) | mortality at 800 ppm (Anthonomus grandis) | mortality at 500 ppm (Plutella xylostella)
